# Source: patent US20220023306A1, “USE OF A PPAR-DELTA AGONIST IN THE TREATMENT OF FATTY ACID OXIDATION DISORDERS (FAOD)” (Reneo Pharmaceuticals, Inc., priority 2019, published 2022)
# What was measured:
# Type in all cases: cell-based
# [1] = biological target: T1, hPPARδ (Homo sapiens, UniProt Q03181); assay: PPAR transient transactivation assay, hPPARδ
# T1 construct: is generated by PCR (PPARδ: aa 128-C-terminus); expressed in transfected cells; host or cells: HEK293
# T1 sequence (Q03181 128-441 limits assumed): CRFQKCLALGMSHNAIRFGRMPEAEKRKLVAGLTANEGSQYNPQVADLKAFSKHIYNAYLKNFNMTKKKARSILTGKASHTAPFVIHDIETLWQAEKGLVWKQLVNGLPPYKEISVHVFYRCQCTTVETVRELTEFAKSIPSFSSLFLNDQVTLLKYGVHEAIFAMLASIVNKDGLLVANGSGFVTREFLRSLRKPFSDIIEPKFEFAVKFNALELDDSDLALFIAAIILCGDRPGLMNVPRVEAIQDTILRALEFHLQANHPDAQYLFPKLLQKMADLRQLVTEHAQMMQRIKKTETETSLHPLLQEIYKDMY
# Experimental: (§1) “Activation” herein is defined as the abovementioned downstream response, which in the case of PPAR's is gene transcription. Gene transcription, in some cases, is measured indirectly as downstream production of proteins reflective of the activation of the particular PPAR subtype under study. Alternatively, an artificial reporter construct, in some cases, is employed to study the activation of the individual PPAR's expressed in cells. The ligand binding domain of the particular receptor to be studied, in some embodiments, is fused to the DNA binding domain of a transcription factor, which produces convenient laboratory readouts, such as the yeast GAL4 transcription factor DNA binding domain. The fusion protein, in some cases, is transfected into a laboratory cell line along with a Gal4 enhancer, which effects the expression of the luciferase protein. When such a system is transfected into a laboratory cell line, binding of a receptor agonist to the fusion protein will result in light emission.
# The PPAR transient transactivation assay, in some cases, is based on transient transfection into human HEK293 cells of two plasmids encoding a chimeric test protein and a reporter protein respectively. The chimeric test protein, in some cases, is a fusion of the DNA binding domain (DBD) from the yeast GAL4 transcription factor to the ligand binding domain (LBD) of the human PPAR proteins. The PPAR-LBD moiety harbored in addition to the ligand binding pocket also has the native activation domain, allowing the fusion protein to function as a PPAR ligand dependent transcription factor. The GAL4 DBD will direct the chimeric protein to bind only to Gal4 enhancers (of which none existed in HEK293 cells). The reporter plasmid contained a Gal4 enhancer driving the expression of the firefly luciferase protein. After transfection, HEK293 cells expressed the GAL4-DBD-PPAR-LBD fusion protein. […] The amount of luciferase protein is measured by light emission after addition of the appropriate substrate. […]
# [2] = biological target: T2, hPPARα (Homo sapiens, UniProt Q07869); assay: PPAR transient transactivation assay, hPPARα
# T2 construct: expressed in transfected cells; host or cells: HEK293
# T2 sequence (Q07869 239-466 limits assumed): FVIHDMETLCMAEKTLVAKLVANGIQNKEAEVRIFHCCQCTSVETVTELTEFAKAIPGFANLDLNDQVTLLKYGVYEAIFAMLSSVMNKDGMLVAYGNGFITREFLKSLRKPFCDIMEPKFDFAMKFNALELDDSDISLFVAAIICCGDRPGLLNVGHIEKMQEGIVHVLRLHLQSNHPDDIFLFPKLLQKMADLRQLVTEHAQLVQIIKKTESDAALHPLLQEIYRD
# Experimental: as §1
# The PPAR transient transactivation assay, in some cases, is based on transient transfection into human HEK293 cells of two plasmids encoding a chimeric test protein and a reporter protein respectively. […] The amount of luciferase protein is measured by light emission after addition of the appropriate substrate. […]
# [3] = system: human retinoid X receptor (hRXR); assay: human retinoid X receptor (hRXR) activity
# [4] = biological target: T3, FXR (Homo sapiens, UniProt Q96RI1); assay: activity on nuclear receptor FXR
# T3 sequence (Q96RI1 1-486): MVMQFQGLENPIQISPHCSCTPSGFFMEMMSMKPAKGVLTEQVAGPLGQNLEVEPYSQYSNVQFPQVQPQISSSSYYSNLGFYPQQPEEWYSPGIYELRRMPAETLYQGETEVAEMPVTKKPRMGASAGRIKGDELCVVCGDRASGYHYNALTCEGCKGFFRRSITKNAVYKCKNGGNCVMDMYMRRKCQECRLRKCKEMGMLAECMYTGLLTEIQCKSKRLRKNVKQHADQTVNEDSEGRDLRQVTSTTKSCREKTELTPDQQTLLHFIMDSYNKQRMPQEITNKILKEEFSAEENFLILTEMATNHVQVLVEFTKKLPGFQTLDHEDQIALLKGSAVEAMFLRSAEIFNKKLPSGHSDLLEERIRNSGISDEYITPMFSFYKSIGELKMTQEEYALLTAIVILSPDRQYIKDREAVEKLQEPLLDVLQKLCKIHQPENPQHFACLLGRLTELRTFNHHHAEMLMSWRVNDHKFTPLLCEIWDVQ
# [5] = system: human muscle cell lines; assay: fatty acid oxidation in human muscle cell lines
# [6] = system: rat muscle cell lines; assay: fatty acid oxidation in rat muscle cell lines
smiles,measurement,setting,value
"Cc1cc(OC/C=C(/c2ccc(F)cc2)c2ccc(C#CCN3CCOCC3)cc2)ccc1OCC(=O)O [Compound 1, (E)-[4-[3-(4-Fluorophenyl)-3-[4-[3-(morpholin-4-yl)propynyl]phenyl]allyloxy]-2-methyl-phenoxy]acetic acid]",type of agonism on PPARδ,[1],full agonist
same,selectivity for PPARδ over PPARα,"[1]; PPARδ over PPARα, human PPAR subtypes in vitro",at least 100 fold
same,selectivity for PPARδ over PPARγ,"[1]; PPARδ over PPARγ, human PPAR subtypes in vitro",at least 400 fold
same,activity on PPARα in transactivation assays,[2],negligible activity
same,type of agonism on PPARα,[2],partial agonist
same,hRXR activity,[3],did not show any
same,activity on FXR,[4],did not show any
same,fatty acid oxidation,[5],dose-dependent increase
same,fatty acid oxidation,[6],dose-dependent increase
